Reference: patent US8466139B2, “Formulation” (AstraZeneca AB, priority 2000, dated 2013)

Tests used:
[1] = Dissipation of 14C labelled benzyl alcohol from the injection site; assay type: in vivo
Description: This finding is indeed surprising for the following reasons. • 1. […] It is believed that the tissue irritation/inflammation was due to the presence of fulvestrant in the form of solid particles. The release profile appeared to be determined by the extent of inflammation/irritation present at the injection site and this was variable and difficult to control.

[2] = Solubility of fulvestrant in different solvents; assay type: physicochemical; settings: Water, 25° C.
[3] = tested on: human breast cancer cells; settings: block of oestradiol-stimulated growth, human breast cancer cells in vitro; cited from earlier work
uterus = settings: intact adult rats, cited from earlier work

| SMILES | time to removal from the body after administration [1] | SOLUBILITY [2] | potency and effectiveness compared with tamoxifen [3] | effect on bone density (uterus; at dose giving maximum regression of the uterus) | regression of the uterus (uterus) |
| --- | --- | --- | --- | --- | --- |
| OCc1ccccc1 [^14C labelled benzyl alcohol, benzyl alcohol] | ≤ 24 h | – | – | – | – |
| C[C@]12CC[C@@H]3c4ccc(O)cc4C[C@@H](CCCCCCCCC[S+]([O-])CCCC(F)(F)C(F)(F)F)[C@H]3[C@@H]1CC[C@@H]2O (stereo partly drawn) [fulvestrant, 7α-[9-(4,4,5,5,5-Pentafluoropentylsulphinyl)nonyl]oestra-1,3-5(10)-triene-3,17β-diol] | – | 0.001 mgml^−1 | more potent and more effective than tamoxifen | does not adversely affect | maximum regression |
